As a reminder, the Km is the substrate concentration at which the rate is half of its maximum. The term inhibition denotes the share of the control response that was lost under treatment.

The record followed here is ChEMBL document CHEMBL1122090, “Species- or isozyme-specific enzyme inhibitors. 7. Selective effects in inhibitions of rat adenylate kinase isozymes by adenosine 5'-phosphate derivatives” (J Med Chem, 1982).

The target in data set [1] is T1, Adenylate kinase isoenzyme 1 (Rattus norvegicus) (UniProt P39069).
T1 sequence (whole entry): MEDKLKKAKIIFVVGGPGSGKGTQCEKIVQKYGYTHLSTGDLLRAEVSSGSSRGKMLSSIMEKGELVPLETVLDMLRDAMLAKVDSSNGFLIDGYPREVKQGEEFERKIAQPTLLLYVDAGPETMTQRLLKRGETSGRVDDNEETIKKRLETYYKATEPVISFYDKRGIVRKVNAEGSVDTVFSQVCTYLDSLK
Kind of data set: Relative Vmax value to Adenylate kinase M isoenzyme (adenylate kinase 1, AK1).

Data set [2] has as its target Adenylate kinase 2, mitochondrial (Rattus norvegicus) (UniProt P29410). In words: Relative Vmax value to Adenylate kinase II.
A short description of data set [3]: Relative inhibition index was the ratio between AK-M and AK II. In kind it is functional.
Data set [4] concerns the target GTP:AMP phosphotransferase AK3, mitochondrial (Rattus norvegicus) (UniProt P29411). In words: Relative Vmax value to rat adenylate kinase III.
In data set [5] the target is T1, Adenylate kinase isoenzyme 1 (Rattus norvegicus). Kind of data set: Inhibition index was the ratio between KM of AMP and Ki of AK M. In kind it is functional.
In data set [6] the target is Adenylate kinase 2, mitochondrial (Rattus norvegicus) (UniProt P29410). In words: Inhibition index was the ratio between KM of AMP and Ki of AK II. In kind it is functional.
Data set [7] deals with C[C@H](OP(=O)(O)O)[C@H]1OC(n2cnc3c(N)ncnc32)[C@H](O)[C@@H]1O. Kind of data set: (§1) Concentration of compound for half-maximal velocity to Adenylate kinase II. The class given is functional.
The test system of data set [8] is Nc1ncnc2c1ncn2[C@@H]1O[C@H](/C=C/P(=O)(O)O)[C@@H](O)[C@H]1O. The data set is described as §1.
Data set [9] relates to C[C@@H]1[C@H](O)[C@@H](COP(=O)(O)O)O[C@H]1n1cnc2c(N)ncnc21. The description is as §1.
Data set [10] relates to CCC[C@H](OP(=O)(O)O)[C@H]1OC(n2cnc3c(N)ncnc32)[C@H](O)[C@@H]1O. The data set is described as §1.
Data set [11] relates to CNc1nc(N)c2ncn([C@@H]3O[C@H](COP(=O)(O)O)[C@@H](O)[C@H]3O)c2n1. The data set is described as §1.
Data set [12] relates to CC[C@H](OP(=O)(O)O)[C@H]1OC(n2cnc3c(N)ncnc32)[C@H](O)[C@@H]1O. The data set is described as §1.
Data set [13] concerns Nc1ncnc2c1ncn2[C@@H]1O[C@H](COP(=O)(O)O)[C@@H](O)[C@H]1O. The data set is described as §1.
Data set [14] concerns Nc1nc(Cl)nc2c1ncn2[C@@H]1O[C@H](COP(=O)(O)O)[C@@H](O)[C@H]1O. The description is as §1.
The test system of data set [15] is Nc1nc(N)c2ncn([C@@H]3O[C@H](COP(=O)(O)O)[C@@H](O)[C@H]3O)c2n1. The data set is described as §1.
The test system of data set [16] is Nc1ncnc2c1ncn2[C@@H]1O[C@H](CCP(=O)(O)O)[C@@H](O)[C@H]1O. The description is as §1.
Data set [17] in a line: Relative inhibition index was the ratio between AK-M and AK III. In kind it is functional.
Data set [18] has as its target GTP:AMP phosphotransferase AK3, mitochondrial (Rattus norvegicus) (UniProt P29411). In words: Relative Vmax value to Adenylate kinase III.
Data set [19] has as its target Adenylate kinase 2, mitochondrial (Rattus norvegicus) (UniProt P29410). In words: Relative Vmax value to rat adenylate kinase II.
The target of data set [20] is GTP:AMP phosphotransferase AK3, mitochondrial (Rattus norvegicus) (UniProt P29411). Kind of data set: Inhibition index was the ratio between KM of AMP and Ki of AK III. The class given is functional.
The target in data set [21] is T1, Adenylate kinase isoenzyme 1 (Rattus norvegicus). In words: Inhibitory constant of compound with Rat adenylate kinase M isozyme at 1.3 mM concentration in the presence of 0.65 mM AMP.
Data set [22] concerns the target GTP:AMP phosphotransferase AK3, mitochondrial (Rattus norvegicus) (UniProt P29411). In words: Inhibitory constant of compound with Rat adenylate kinase IIl at 1.3 mM concentration in the presence of 0.65 mM AMP.

Chain of GTP:AMP phosphotransferase AK3, mitochondrial (Rattus norvegicus) (P29411 whole entry): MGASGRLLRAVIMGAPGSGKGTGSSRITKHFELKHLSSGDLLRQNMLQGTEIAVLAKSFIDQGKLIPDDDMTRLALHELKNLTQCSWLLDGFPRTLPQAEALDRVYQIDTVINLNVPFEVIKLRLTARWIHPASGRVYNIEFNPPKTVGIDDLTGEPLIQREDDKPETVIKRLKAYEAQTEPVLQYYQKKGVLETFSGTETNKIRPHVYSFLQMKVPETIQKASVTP

As to `CC[C@H](OP(=O)(O)O)[C@H]1OC(n2cnc3c(N)ncnc32)[C@H](O)[C@@H]1O` (some centres undefined), the Relative Vmax in [1] is more than 0; in data set [2], 2.4; in data set [4], more than 0. In addition, in data set [3], the Relative inhibition index stood at 11.2. For the same compound, the figures for the Inhibition index in data set [5] and in data set [6] were 0.64 and 0.057, respectively.
For “Adenylate kinase 2, mitochondrial (Rattus norvegicus) (from UniProt P29410)”, the Km was determined as 1300 µM in data set [7]; 1600 µM in [8]; 910 µM in [9]; 1100 µM in data set [10]; 3000 µM in data set [11]; 1400 µM in data set [12]. Further, the Km came out at 80 µM in [13], 1600 µM in data set [14], 1600 µM in data set [15] and 2500 µM in [16].
Turning to `Nc1ncnc2c1ncn2[C@@H]1O[C@H](/C=C/P(=O)(O)O)[C@@H](O)[C@H]1O`, the Relative Vmax in [1] stood at 2.1; in [18], 13; in data set [19], 12. Moreover, the Relative inhibition index is 5.8 in [3] and 5.1 in [17]. Also, the Inhibition index was found to be 0.29 in data set [5], 0.057 in data set [20] and 0.05 in data set [6].
With `CCC[C@H](OP(=O)(O)O)[C@H]1OC(n2cnc3c(N)ncnc32)[C@H](O)[C@@H]1O` (some centres undefined), the figures for the Relative Vmax in data set [1], in data set [2] and in data set [4] were more than 0, 1.3 and 0.82, respectively. The Relative inhibition index in data set [3] was 5.6; in [17] it was 4.3. Also, the Inhibition index in data set [5] is 0.41; in data set [20], 0.096; in data set [6], 0.073.
Consider `CN(C)c1nc(N)c2ncn(C3O[C@H](COP(=O)(O)O)[C@@H](O)[C@H]3O)c2n1` (some centres undefined), for which the Relative Vmax worked out at 0.04 in data set [1], 0 in data set [19] and 0 in data set [4]. Moreover, the Relative inhibition index was found to be 5.5 in data set [3] and 4.5 in data set [17]. Also, the Inhibition index in data set [5] is 0.077; in data set [20], 0.017; in data set [6], 0.014.
`C[C@H](OP(=O)(O)O)[C@H]1OC(n2cnc3c(N)ncnc32)[C@H](O)[C@@H]1O` (some centres undefined): the figures for the Relative Vmax in [1], in [19] and in data set [4] were 1, 7 and 8, respectively. Moreover, the Relative inhibition index in data set [3] came out at 4.7; in data set [17], 2.8. Further, the Inhibition index in [5] was found to be 0.28; in data set [20] it was 0.1; in data set [6], 0.062.
For `CO[C@@H]1[C@H](O)[C@@H](COP(=O)(O)O)O[C@H]1n1cnc2c(N)ncnc21`, the Relative Vmax in data set [1], in data set [19] and in data set [4] was more than 0 in each case. Also, the figures for the Relative inhibition index in data set [3] and in data set [17] were 6.4 and 8.2, respectively. Also, the Inhibition index in data set [5] was 0.14; in data set [20], 0.017; in data set [6], 0.022.
Regarding `CNc1ncnc2c1ncn2[C@@H]1O[C@H](COP(=O)(O)O)[C@@H](O)[C@H]1O`, the Relative Vmax in data set [1], in data set [19] and in data set [4] was 0 each time. Besides, the inhibition in data set [21] and in data set [22] was 15% each time.
Regarding `CO[C@H]1[C@@H](O)[C@H](n2cnc3c(N)ncnc32)O[C@@H]1COP(=O)(O)O`, the Relative Vmax in [1], in data set [19] and in data set [4] was more than 0 throughout. The Relative inhibition index was found to be 4 in data set [3] and 2.6 in [17]. Besides, the Inhibition index in data set [5] was found to be 0.34; in [20], 0.13; in data set [6] it was 0.085.
